Laboratory results taken from patent publication US9284301B2, “Soluble guanylate cyclase activators” (Merck Sharp & Dohme Corp., priority 2010, dated 2016).

Target: T1, sGC α1/β1 heterodimer (Homo sapiens, UniProt Q02108+Q02153)
T1 construct: expressed in transfected cells; host or cells: CHO-K1 (clone #7, CHO-K1/sGC)
T1 sequence (Q02108 1-690): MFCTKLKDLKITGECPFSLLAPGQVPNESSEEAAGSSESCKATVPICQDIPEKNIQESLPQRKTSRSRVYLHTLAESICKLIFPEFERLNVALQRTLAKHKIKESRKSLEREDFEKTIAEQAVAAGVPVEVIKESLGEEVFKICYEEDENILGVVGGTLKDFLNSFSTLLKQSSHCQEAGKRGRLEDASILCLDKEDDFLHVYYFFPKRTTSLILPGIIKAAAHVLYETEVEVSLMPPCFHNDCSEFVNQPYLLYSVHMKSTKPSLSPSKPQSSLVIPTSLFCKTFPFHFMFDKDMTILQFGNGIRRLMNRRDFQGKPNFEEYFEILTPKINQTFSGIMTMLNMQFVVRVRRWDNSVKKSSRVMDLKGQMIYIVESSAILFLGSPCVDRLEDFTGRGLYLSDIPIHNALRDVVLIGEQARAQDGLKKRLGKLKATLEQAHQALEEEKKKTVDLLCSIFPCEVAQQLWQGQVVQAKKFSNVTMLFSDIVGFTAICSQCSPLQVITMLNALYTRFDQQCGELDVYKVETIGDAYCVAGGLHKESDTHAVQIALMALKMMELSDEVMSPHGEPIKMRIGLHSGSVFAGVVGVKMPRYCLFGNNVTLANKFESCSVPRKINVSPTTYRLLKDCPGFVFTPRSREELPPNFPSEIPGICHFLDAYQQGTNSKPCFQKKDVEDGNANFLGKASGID
T1 sequence (Q02153 1-619): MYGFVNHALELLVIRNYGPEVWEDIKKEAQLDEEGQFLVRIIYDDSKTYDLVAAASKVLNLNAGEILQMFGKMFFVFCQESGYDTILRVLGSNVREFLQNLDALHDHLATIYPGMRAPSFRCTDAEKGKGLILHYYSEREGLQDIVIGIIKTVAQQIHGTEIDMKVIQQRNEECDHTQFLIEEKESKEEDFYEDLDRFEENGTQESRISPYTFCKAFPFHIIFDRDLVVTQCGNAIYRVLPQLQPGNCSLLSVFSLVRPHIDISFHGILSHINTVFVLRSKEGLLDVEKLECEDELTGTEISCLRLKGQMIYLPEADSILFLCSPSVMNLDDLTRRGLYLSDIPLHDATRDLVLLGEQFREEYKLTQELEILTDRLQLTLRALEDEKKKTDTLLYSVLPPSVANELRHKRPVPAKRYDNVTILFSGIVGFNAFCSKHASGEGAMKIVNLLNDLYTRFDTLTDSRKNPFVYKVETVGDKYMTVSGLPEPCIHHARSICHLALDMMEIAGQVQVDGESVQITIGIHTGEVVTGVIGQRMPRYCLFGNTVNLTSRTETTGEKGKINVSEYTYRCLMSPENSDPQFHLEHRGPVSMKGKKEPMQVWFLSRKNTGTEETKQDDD
Test: Cell-based sGC Functional Assay (CASA Assay): cGMP generation in CHO-K1/sGC cells, HTRF readout
Details: without ODQ incubation; for EC50: read-out: IP (inflection point)
Excerpt: Cell-based sGC Functional Assay (CASA Assay) Rationale: sGC is a heme-containing enzyme that converts GTP to secondary messenger cGMP. Increases in cGMP levels affect several physiological processes including vasorelaxation through multiple downstream pathways. […] Heme-dependent activators (HDAs) preferentially activate sGC containing a ferrous Deme group. To determine the effect of sGC activators on enzyme activity, the CASA assay was developed to monitor the generation of cGMP in a cell line that stably expresses the heterodimeric sGC protein. Methods: A CHO-K1 cell line stably expressing the sGC α1/β1 heterodimer was generated using a standard transfection protocol. CHO-K1 cells were transfected with plasmids pIREShyghsGCα1 and pIRESneo-hsGCβ1 simultaneously using FUGENE reagent. Clones that stably express both subunits were selected with hygromycin and neomycin for ˜2 weeks. Clone #7 was chosen for the assay and was designated CHO-K1/sGC. CHO-K1/sGC cells were maintained in F-K12 medium containing 10% heat-inactivated Fetal Bovine Serum (FBS), 100 μg/mL penicillin/streptomycin, 0.5 mg/mL hygromycin and 0.25 mg/mL G418. On the day of the assay, cells were harvested in EBSS Assay Buffer (EAB) containing 5 mM MgCl2, 10 mM HEPES (4-(2-hydroxyethyl)piperazine-1-ethanesulfonic acid) and 0.05% BSA (bovine serum albumin) and cell density was adjusted to 2×10^6/mL with EAB. IBMX (3-isobutyl-1-methylxanthin, 0.5 mM) was added to inhibit degradation of cGMP. Compounds were diluted from DMSO stock solutions and added to the assay at a final DMSO concentration of 1%. Cells were incubated with compounds of the invention, in the presence and/or absence of 10 μM of 1H-(1,2,4)oxadiazolo(4,3-a) quinoxalin-1-one (ODQ), for 1 hr at 37° C. At the end of the incubation period, the reaction was terminated and the cells were lysed. The level of intracellular cGMP was determined using an HTRF-based assay kit (from CisBio, 62GM2PEC), which detects the displacement of a fluorescence labeled cGMP from its specific antibody. HTRF is a TR-FRET based technology that uses the principles of TRF and FRET. The amount of cGMP was plotted against compound concentration in PRISM software and the inflection point (IP) and maximum fold induction over DMSO control were derived from the plot.

## Cc1c(-c2cnc(-c3nc(Cc4c(F)ccc(F)c4F)n4ncccc34)nc2N)c(C(F)(F)F)nn1C [Example 3, 5-[1,5-dimethyl-3-(trifluoromethyl)-1H-pyrazol-4-yl]-2-[7-(2,3,6-trifluorobenzyl)imidazo[1,5-b]pyridazin-5-yl]pyrimidin-4-amine]
  Maximum fold induction over DMSO control: 71 fold
  EC50: 499 nM

## Cc1cc(-c2cnc(-c3nc(Cc4c(F)ccc(F)c4F)n4ncccc34)nc2N)ccn1 [Example 4, 5-(2-methylpyridin-4-yl)-2-[7-(2,3,6-trifluorobenzyl)imidazo[1,5-b]pyridazin-5-yl]pyrimidin-4-amine]
  Maximum fold induction over DMSO control: 55 fold
  EC50: 178 nM

## Nc1nc(-c2nc(Cc3c(F)ccc(F)c3F)n3ncccc23)ncc1-c1cccc2ncccc12 [Example 7, 5-quinolin-5-yl-2-[7-(2,3,6-trifluorobenzyl)imidazo[1,5-b]pyridazin-5-yl]pyrimidin-4-amine]
  Maximum fold induction over DMSO control: 129 fold
  EC50: 296 nM

## Nc1nc(-c2nc(Cc3c(F)ccc(F)c3F)n3cc(F)ccc23)ncc1-c1cccnc1 [Example 56, 2-[6-fluoro-3-(2,3,6-trifluorobenzyl)imidazo[1,5-a]pyridin-1-yl]-5-pyridin-3-ylpyrimidin-4-amine]
  Maximum fold induction over DMSO control: 322 fold
  EC50: 397 nM

## Nc1nc(-c2nc(Cc3c(F)ccc(F)c3F)n3cc(F)ccc23)ncc1-c1ccnc2ccc(F)cc12 [Example 73, 5-(6-fluoroquinolin-4-yl)-2-[6-fluoro-3-(2,3,6-trifluoro-benzyl)imidazo[1,5-a]pyridin-1-yl]pyrimidin-4-amine]
  Maximum fold induction over DMSO control: 234 fold
  EC50: 170 nM

## Cn1cc(-c2c(N)nc(-n3nc(Cc4c(F)ccc(F)c4F)c4cc(Cl)ccc43)nc2N)cn1 [Example 83, 2-[5-chloro-3-(2,3,6-trifluorobenzyl)-1H-indazol-1-yl]-5-(1-methyl-1H-pyrazol-4-yl)pyrimidine-4,6-diamine]
  Maximum fold induction over DMSO control: 127 fold
  EC50: 34 nM

## Nc1nc(-n2nc(Cc3c(F)ccc(F)c3F)c3cc(Cl)ccc32)nc(N)c1NC(=O)C1CC1 [Example 178, N-{4,6-diamino-2-[5-chloro-3-(2,3,6-trifluorobenzyl)-1H-indazol-1-yl]pyrimidin-5-yl}cyclopropanecarboxamide]
  Maximum fold induction over DMSO control: 74 fold
  EC50: 524 nM

## Nc1nc(-n2nc(CCC3CCCC3)c3ccccc32)nc(N)c1-c1cccnc1 [Example 208, 2-[3-(2-cyclopentylethyl)-1H-indazol-1-yl]-5-pyridin-3-ylpyrimidine-4,6-diamine]
  Maximum fold induction over DMSO control: 244 fold
  EC50: 540 nM
